# Laboratory results from ChEMBL document CHEMBL5120831, “Pep5-based antitumor peptides containing multifunctional fragments with enhanced activity and synergistic effect” (Eur J Med Chem, 2022).
# Calls of active or inactive are those of the source. No cut-off for these calls is given here. Bridge positions count the residues as written; N and C are the ends. Peptide text beside a SMILES is read from it. I, II: the chains in the order shown.
# Legend:
# HepG2 [1] = test: Cytotoxicity against human HepG2 cells assessed as reduction in cell viability measured after 24 hrs by CCK-8 assay; assay type: functional, cell-based; conditions: for IC50: HepG2, 24 h
# [2] = Cytotoxicity against human L02 cells assessed as reduction in cell viability measured after 24 hrs by CCK-8 assay; assay type: toxicity, cell-based
# A549 [3] = test: Cytotoxicity against human A549 cells assessed as reduction in cell viability measured after 24 hrs by CCK-8 assay; assay type: functional, cell-based; conditions: for IC50: A549, 24 h
# [4] = Cytotoxicity against human BEAS-2B cells assessed as reduction in cell viability measured after 24 hrs by CCK-8 assay; assay type: toxicity, cell-based
# HepG2 [5] = test: Induction of apoptosis in human HepG2 cells assessed as reduction in viable cells at 15 uM measured after 24 hrs by Annexin V-FITC/propidium iodide staining based flow cytometry; assay type: functional, cell-based
# A549 [6] = test: Induction of apoptosis in human A549 cells assessed as reduction in viable cells at 15 uM measured after 24 hrs by Annexin V-FITC/propidium iodide staining based flow cytometry; assay type: functional, cell-based
# L02 = test: Induction of apoptosis in human L02 cells assessed as reduction in viable cells at 15 uM measured after 24 hrs by Annexin V-FITC/propidium iodide staining based flow cytometry; assay type: toxicity, cell-based; conditions: l02, 24 h
# BEAS-2B = test: Induction of apoptosis in human BEAS-2B cells assessed as reduction in viable cells at 15 uM measured after 24 hrs by Annexin V-FITC/propidium iodide staining based flow cytometry; assay type: toxicity, cell-based
# A549 [7] = test: Induction of cell membrane disruption in human A549 cells assessed as increase in LDH release at 15 uM measured after 1 hr by LDH releasing reagent based assay
# HepG2 [8] = test: Induction of cell membrane disruption in human HepG2 cells assessed as increase in LDH release at 15 uM measured after 1 hr by LDH releasing reagent based assay
# HepG2 [9] = test: Induction of morphological changes in human HepG2 cells assessed as decrease in cell number at 15 uM measured after 24 hrs by high-throughput microscopy; assay type: functional, cell-based
# HepG2 [10] = test: Induction of morphological changes in human HepG2 cells assessed as appearance of abnormal cell morphology at 15 uM measured after 24 hrs by high-throughput microscopy; assay type: functional, cell-based
# HepG2 [11] = test: Induction of apoptosis in human HepG2 cells assessed as increase in late apoptotic cells at 15 uM measured after 24 hrs by Annexin V-FITC/propidium iodide staining based flow cytometry; assay type: functional, cell-based
# HepG2 [12] = test: Induction of apoptosis in human HepG2 cells assessed as increase in necrotic cells at 15 uM measured after 24 hrs by Annexin V-FITC/propidium iodide staining based flow cytometry; assay type: functional, cell-based
# A549 [13] = test: Induction of apoptosis in human A549 cells assessed as increase in late apoptotic cells at 15 uM measured after 24 hrs by Annexin V-FITC/propidium iodide staining based flow cytometry; assay type: functional, cell-based
# A549 [14] = test: Induction of apoptosis in human A549 cells assessed as increase in necrotic cells at 15 uM measured after 24 hrs by Annexin V-FITC/propidium iodide staining based flow cytometry; assay type: functional, cell-based
# HepG2 [15] = test: Antitumor activity against human HepG2 cells xenografted in sc dosed BALB/c nude mouse assessed as tumor growth inhibition administered at 1 day interval for 9 days; assay type: functional, organism-based; conditions: dose 25-50 µM, time 9.0 day, DDE = dose-dependent effect
# HepG2 [16] = test: Antitumor activity against human HepG2 cells xenografted in BALB/c nude mouse assessed as reduction in tumor volume at 25 to 50 uM, sc administered at 1 day interval for 9 days; assay type: functional, organism-based; conditions: dose 25-50 µM, time 9.0 day
# [17] = Toxicity in HepG2 cell xenografted BALB/c nude mouse assessed as change in body weight at 25 to 50 uM, sc administered at 1 day interval for 9 days; assay type: organism-based; conditions: in vivo, 216 h, dose 25-50 µM, time 9 day
# HepG2 [18] = test: Antitumor activity against human HepG2 cells xenografted in BALB/c nude mouse assessed as appearance of fuzzy boundary region at 25 to 50 uM, sc administered at 1 day interval for 9 days and measured on day 11 by H and E staining based histological analysis; assay type: functional, organism-based; conditions: dose 25-50 µM, time 11.0 day
# HepG2 [19] = test: Antitumor activity against human HepG2 cells xenografted in BALB/c nude mouse assessed as missing nuclei at 25 to 50 uM, sc administered at 1 day interval for 9 days and measured on day 11 by H and E staining based histological analysis; assay type: functional, organism-based; conditions: dose 25-50 µM, time 11.0 day
# HepG2 [20] = test: Antitumor activity against human HepG2 cells xenografted in BALB/c nude mouse assessed as induction of apoptosis at 25 to 50 uM, sc administered at 1 day interval for 9 days and measured on day 11 by TUNEL staining based assay; assay type: functional, organism-based; conditions: dose 25-50 µM, time 11.0 day
# HepG2 [21] = test: Induction of morphological changes in human HepG2 cells assessed as appearance of broken cell structure at 15 uM measured after 24 hrs by high-throughput microscopy; assay type: functional, cell-based
# HepG2 [22] = test: Induction of apoptosis in human HepG2 cells assessed as appearance of apoptotic bodies at 15 uM measured after 24 hrs by transmission electron microscopy; assay type: functional, cell-based
# HepG2 [23] = test: Induction of apoptosis in human HepG2 cells assessed as chromatin condensation at 15 uM measured after 24 hrs by transmission electron microscopy; assay type: functional, cell-based
# HepG2 [24] = test: Induction of apoptosis in human HepG2 cells assessed as swollen mitochondria at 15 uM measured after 24 hrs by transmission electron microscopy; assay type: functional, cell-based
# HepG2 [25] = test: Induction of apoptosis in human HepG2 cells assessed as hollow mitochondria at 15 uM measured after 24 hrs by transmission electron microscopy; assay type: functional, cell-based
# HepG2 [26] = test: Induction of apoptosis in human HepG2 cells assessed as cell membrane disruption at 15 uM measured after 24 hrs by transmission electron microscopy; assay type: functional, cell-based
# HepG2 [27] = test: Induction of necrosis in human HepG2 cells assessed as cell membrane disruption at 30 uM measured after 24 hrs by transmission electron microscopy; assay type: functional, cell-based
# HepG2 [28] = test: Induction of necrosis in human HepG2 cells assessed as releasing of large number of cell content into extracellular space at 30 uM measured after 24 hrs by transmission electron microscopy; assay type: functional, cell-based
# A549 [29] = test: Induction of apoptosis in human A549 cells assessed as appearance of apoptotic bodies at 15 uM measured after 24 hrs by transmission electron microscopy; assay type: functional, cell-based
# A549 [30] = test: Induction of apoptosis in human A549 cells assessed as chromatin condensation at 15 uM measured after 24 hrs by transmission electron microscopy; assay type: functional, cell-based
# A549 [31] = test: Induction of apoptosis in human A549 cells assessed as swollen mitochondria at 15 uM measured after 24 hrs by transmission electron microscopy; assay type: functional, cell-based
# A549 [32] = test: Induction of apoptosis in human A549 cells assessed as hollow mitochondria at 15 uM measured after 24 hrs by transmission electron microscopy; assay type: functional, cell-based
# A549 [33] = test: Induction of apoptosis in human A549 cells assessed as cell membrane disruption at 15 uM measured after 24 hrs by transmission electron microscopy; assay type: functional, cell-based
# A549 [34] = test: Induction of necrosis in human A549 cells assessed as cell membrane disruption at 30 uM measured after 24 hrs by transmission electron microscopy; assay type: functional, cell-based
# A549 [35] = test: Induction of necrosis in human A549 cells assessed as releasing of large number of cell content into extracellular space at 30 uM measured after 24 hrs by transmission electron microscopy; assay type: functional, cell-based
# Proteasome = test: Inhibition of proteasome activity in human A549 cells measured after 4 hrs by luciferase assay; conditions: dose 5-30 µM, DDE = dose-dependent effect
# HepG2 [36] = test: Induction of ROS generation in human HepG2 cells at 10 to 30 uM measured after 4 hrs by DCFH-DA reagent based fluorescence assay; assay type: functional, cell-based; conditions: dose 10-30 µM
compound,measurement,setting,value
CC[C@H](C)[C@H](NC(=O)[C@H](CCCCN)NC(=O)[C@H](CC(N)=O)NC(=O)[C@H](CCCNC(=N)N)NC(=O)[C@H](Cc1ccccc1)NC(=O)[C@H](CCCCN)NC(=O)[C@H](CCCNC(=N)N)NC(=O)[C@H](CC(C)C)NC(=O)[C@H](CCCNC(=N)N)NC(=O)[C@H](CCCCNC(=O)[C@H](CCCCN)NC(=O)[C@H](CCC(=O)O)NC(=O)[C@H](CCCCN)NC(=O)[C@@H](NC(=O)[C@H](CCCCN)NC(=O)[C@H](CC(N)=O)NC(=O)[C@H](CCCNC(=N)N)NC(=O)[C@H](Cc1ccccc1)NC(=O)[C@H](CCCCN)NC(=O)[C@H](CCCNC(=N)N)NC(=O)[C@H](CC(C)C)NC(=O)[C@H](CCCNC(=N)N)NC(=O)[C@H](CCCCN)NC(=O)[C@H](CCCNC(=N)N)NC(=O)[C@H](CC(C)C)NC(=O)CN)[C@@H](C)CC)NC(=O)[C@H](CCCNC(=N)N)NC(=O)[C@H](CC(C)C)NC(=O)CN)C(=O)N[C@@H](CCCCN)C(=O)N[C@@H](CCC(=O)O)C(=O)N[C@@H](CCCCN)C(=O)O (I: H-GLRKRLRKFRNKIKEK / II: H-GLRKRLRKFRNKIKEK-OH; amide I:C-II:4),IC50,HepG2 [1],34.8 µM
same,IC50 at 24 h,[2],70.7 µM
same,IC50,A549 [3],56.2 µM
same,IC50 at 24 h,[4],93.6 µM
same,Activity,HepG2 [5],Active
same,Activity,A549 [6],Active
same,Activity,L02,Non-Toxic
same,Activity,BEAS-2B,Non-Toxic
same,Activity,A549 [7],Active
same,Activity,HepG2 [8],Active
CC(C)C[C@H](NC(=O)[C@H](CCCCN)NC(=O)CNC(=O)[C@H](CC(C)C)NC(=O)[C@@H](NC(=O)[C@@H](NC(=O)[C@H](CC(C)C)NC(=O)[C@H](CCC(=O)O)NC(=O)[C@@H](N)Cc1c[nH]c2ccccc12)C(C)C)C(C)C)C(=O)N[C@@H](Cc1ccc(O)cc1)C(=O)NCC(=O)N[C@@H](CCCNC(=N)N)C(=O)N[C@@H](CCCCN)C(=O)N[C@@H](CCCCN)C(=O)N[C@@H](CCCNC(=N)N)C(=O)N[C@@H](CCCNC(=N)N)C(=O)N[C@@H](CCC(N)=O)C(=O)N[C@@H](CCCNC(=N)N)C(=O)N[C@@H](CCCNC(=N)N)C(=O)N[C@@H](CCCNC(=N)N)C(=O)O (H-WELVVLGKLYGRKKRRQRRR-OH),Activity,HepG2 [1]; DDE = dose-dependent effect,Dde
same,IC50,HepG2 [1],31.2 µM
same,IC50 at 24 h,[2],63.9 µM
same,IC50,A549 [3],30.9 µM
same,Activity,A549 [3]; DDE = dose-dependent effect,Dde
same,IC50 at 24 h,[4],32.9 µM
same,Activity,HepG2 [9],Active
same,Activity,HepG2 [10],Active
same,Activity,HepG2 [11],Active
same,Activity,HepG2 [12],Active
same,Activity,A549 [13],Active
same,Activity,A549 [14],Active
same,Activity,L02,Non-Toxic
same,Activity,BEAS-2B,Non-Toxic
same,Activity,A549 [7],Active
same,Activity,HepG2 [8],Active
same,TGI,HepG2 [15],Dde
same,Activity,HepG2 [16],Active
same,Activity,[17],Non-Toxic
same,Activity,HepG2 [18],Active
same,Activity,HepG2 [19],Active
same,Activity,HepG2 [20],Active
I: H-WELVVLGKLLLHHLLHHLLHHGLRKRLRKFRNKIKEK / II: H-GLRKRLRKFRNKIKEK-NH2 (amide I:C-II:4),IC50,HepG2 [1],7.77 µM
same,IC50 at 24 h,[2],11.1 µM
same,IC50,A549 [3],6.41 µM
same,IC50 at 24 h,[4],11.2 µM
same,Activity,HepG2 [21],Active
same,Activity,L02,Non-Toxic
same,Activity,BEAS-2B,Non-Toxic
same,Activity,HepG2 [22],Active
same,Activity,HepG2 [23],Active
same,Activity,HepG2 [24],Active
same,Activity,HepG2 [25],Active
same,Activity,HepG2 [26],Active
same,Activity,HepG2 [27],Active
same,Activity,HepG2 [28],Active
same,Activity,A549 [29],Active
same,Activity,A549 [30],Active
same,Activity,A549 [31],Active
same,Activity,A549 [32],Active
same,Activity,A549 [33],Active
same,Activity,A549 [34],Active
same,Activity,A549 [35],Active
same,Activity,A549 [7],Active
same,Activity,HepG2 [8],Active
same,inhibition,Proteasome,Dde
same,Activity,HepG2 [36],Active
same,TGI,HepG2 [15],Dde
same,Activity,HepG2 [16],Active
same,Activity,[17],Non-Toxic
same,Activity,HepG2 [18],Active
same,Activity,HepG2 [19],Active
same,Activity,HepG2 [20],Active
